Experimental data: patent publication US20150359854A1 (HUMAN MATRIX SCIENCES, LLC, priority 2012, published 2015)
Entries after “also recorded” stand apart in the source; their conditions may differ.

Key:
[1] = test system: human aortic SMCs (AoSMCs); experiment: Immunocytochemistry and morphometry of elastic fibers in AoSMC cultures; format: cell-based; details: 24-hour treatment, 0.5 to 100 nmol/L insulin, confluent AoSMCs, 2% FBS
Excerpt: Human aortic SMCs (AoSMCs) were propagated from small fragments of aortic media collected from autopsy. Guidelines for the protection of human subjects of the US Department of Health and Human Services and of the Declaration of Helsinki were followed in obtaining tissues for this investigation. Cells migrating from the cultured explants of aortic media were routinely passaged (up to three times) via trypsinization using 0.2% trypsin-0.02% EDTA, and were maintained in DMEM supplemented with 5% FBS and 1% antibiotic-antimycotic mix. The second and third passages of cells that migrated from the original explants of aortic media were routinely probed with antibodies recognizing the SMC-specific α-actin to monitor the preservation of the SMC phenotype. All cells were initially plated at 100,000 cells per dish for immediate confluency so they would begin extracellular matrix production. The cell cultures committed to particular experiments were then transferred to DMEM containing either 2% FBS or to serum-free medium before initiation of particular treatments.
At the end of treatments, confluent cultures of AoSMCs were fixed in cold 100% methanol at −20° C. for 30 minutes, and blocked with 1% normal goat serum for 1 hour. The cultures were then incubated for 1 hour with 10 μg/mL polyclonal antibodies to tropoelastin and/or with 10 μg/mL monoclonal antibody to SMC-specific α-actin. All cultures were then incubated for another hour with the respective fluorescein-conjugated secondary antibodies (fluorescein-conjugated goat anti-rabbit or anti-mouse). Nuclei were counterstained with red-fluorescent propidium iodide or blue-fluorescent DAPI. The cultures were then mounted in ethanol and examined using a microscope (Eclipse E1000; Nikon Instruments, Inc., Melville, N.Y.) attached to a cooled CCD camera (Retiga EX; QImaging Corp., Vancouver, BC, Canada) and a computer-generated morphometric analysis system (Image-Pro Plus software; Media Cybernetics, Inc., Bethesda, Md.). In each analyzed group, 50 low-power fields from three separate cultures were analyzed, and the areas occupied by immunodetectable elastic fibers were expressed as a percentage of the entire analyzed field.

[2] = test system: cultures derived from aortic adventitia, primarily fibroblasts; experiment: Elastic fiber deposition in cultures derived from aortic adventitia; format: cell-based, human
cdk-2 = experiment: Western blotting of cdk-2 phosphorylation; format: cell-based, human; details: 30-minute treatment, 10 nmol/L insulin
Excerpt: (§1) At the end of all treatments, cells from quadruplicate cultures in each experimental group were lysed using NP40 cell lysis buffer (Invitrogen Corp.). Thirty micrograms of protein extracts from each sample was suspended in standard sample buffer, resolved on 4% to 12% gradient SDS-PAGE gels, transferred to nitrocellulose membranes, and subjected to Western blotting using antibodies.

[3] = molecular target: Insulin-Like Growth Factor-1 Receptor (IGFR-1R) (Homo sapiens, UniProt P08069); details: cited from earlier work
[4] = test system: human aortic SMCs (AoSMCs); experiment: Cell proliferation ([3H]-thymidine incorporation and Ki-67 immunodetection); format: cell-based; details: 48-hour AoSMC cultures, 0.5 to 100 nmol/L insulin
Protocol: Cells were plated in 35-mm culture dishes (100,000 cells per dish) containing DMEM supplemented with 5% FBS. The cultures were grown to 70% to 80% confluency and serum-starved overnight to synchronize the cell cycles. […] The total amount of [3H]-thymidine-labeled DNA in individual cultures was then assessed via scintillation counting. […] The cultures were counterstained with hematoxylin. In each experimental group, quadruplicate cultures were examined under 200× magnification. The percentage of positively stained cells was determined and averaged over the 30 fields examined.

retinoblastoma protein = experiment: Western blotting of retinoblastoma protein phosphorylation; format: cell-based, human; details: 30-minute treatment, 10 nmol/L insulin
Excerpt: as §1

S-Gal/EBP = experiment: Association of tropoelastin with S-Gal/EBP chaperone (Western blot, co-immunoprecipitation, double immunostaining); format: cell-based, human; details: 20 minutes, 10 nmol/L insulin
Protocol: Cultures fixed for 30 minutes in cold 100% methanol were then blocked with 1% glycine for 15 minutes, followed by 2% bovine serum albumin with 0.1% Triton X-100 for another hour at room temperature. They were finally exposed for 1 hour to the mixture of 5 μg/mL polyclonal anti-S-Gal/EBP and 5 μg/mL monoclonal anti-tropoelastin antibodies. All cultures were then incubated for another hour with the mixture of fluorescein-conjugated and rhodamine-conjugated secondary antibodies. Nuclei were counterstained with DAPI. At the end of all treatments, cells from quadruplicate cultures in each experimental group were lysed using NP40 cell lysis buffer (Invitrogen Corp.). Thirty micrograms of protein extracts from each sample was suspended in standard sample buffer, resolved on 4% to 12% gradient SDS-PAGE gels, transferred to nitrocellulose membranes, and subjected to Western blotting using antibodies. At the end of indicated treatments, the cultured cells were lysed as described, and 300 μL aliquots of cell extracts containing […] were incubated at 4° C. for 3 hours with the aliquots of protein G bound DYNABEADS® (Invitrogen Corp.) that were conjugated with either rabbit polyclonal anti-tropoelastin, goat polyclonal anti-Glut10, or rabbit polyclonal anti-S-Gal antibodies. The beads carrying the final immunoprecipitation products were then washed with PBS, resuspended in sample buffer, and boiled for 5 minutes. The released proteins were then resolved on SDS-PAGE gel and subjected to Western blotting using indicated antibodies.

[5] = test system: human aortic SMCs (AoSMCs); experiment: Quantitative assay of [3H]-valine-labeled insoluble elastin; format: cell-based; details: 24-hour treatment, 0.5 to 100 nmol/L insulin
Protocol: Cells were plated in 35-mm dishes at a density of 100,000 cells per dish and were grown to confluency. Two microcuries [3H]-valine per milliliter fresh medium supplemented with 2% FBS was added 2 hours before the indicated treatments. At the end of each experiment, the conditioned medium was collected and subjected to immunoprecipitation using anti-tropoelastin antibody. The cell layers were washed with PBS and incubated using radioimmunoprecipitation lysis buffer for 10 minutes on ice. After centrifugation, the supernatants were collected and subjected to immunoprecipitation using anti-tropoelastin antibody. The remaining pellets containing extracellular matrix were scraped and boiled in 500 μL 0.1 N NaOH for 30 minutes to solubilize all matrix components except the cross-linked elastin. Final results (counts per minute) reflecting the total amount of [3H]-valine-labeled insoluble elastin in individual cultures were normalized per their DNA contents (assessed using the Qiagen DNEASY® (DNA isolation) Tissue Kit) and expressed as percentage of control values.

## insulin
[1]
  production of immunodetected elastic fibers: dose-dependent increase; also recorded: induce new elastogenesis in a dose-dependent manner
[2]; 1 nmol/L insulin, primarily fibroblasts
  deposition of new elastic fibers in aortic adventitia cultures: stimulated deposition of new elastic fibers
[2]; 48-hour treatment with 10 nmol/L insulin
  deposition of immunodetected elastic fibers in aortic media and adventitia cultures: deposit multiple immunodetected elastic fibers
cdk-2
  phosphorylation of cdk-2 on tyrosine 160: did not induce phosphorylation
[3]
  lower affinity of IGFR-1R for insulin compared to the insulin receptor: 1000 ×
[4]
  basic proliferative rate ([3H]-thymidine incorporation, Ki-67): did not induce any up-regulation
Retinoblastoma protein
  site-specific phosphorylation of retinoblastoma protein on threonine 821: did not
S-Gal/EBP
  S-Gal/EBP coimmunoprecipitated using anti-tropoelastin antibody vs untreated: significantly more
  basic levels of intracellular S-Gal/EBP or tropoelastin (Western blot): did not demonstrate any increase; also recorded: do not demonstrate any increase
  co-localization of tropoelastin and S-Gal/EBP (double immunostaining): reveal co-localization
[5]
  levels of metabolically labeled insoluble elastin: up-regulated
